Values joined by “and” are separate entries in the source; they are usually repeats but may differ in a detail not shown here. Equal entries are not always repeated. Where two headings read alike, the source gives them in different places. Marks after values point to notes of the source that are not given here.
Experiments:
[1] = tested on: subcutaneous pentylenetetrazole induced seizures; conditions: mice IP; cited from earlier work
[2] = tested on: subcutaneous pentylenetetrazole induced seizures; test: Subcutaneous metrazole seizure; format: in vivo, rat; conditions: for scMET, number protected/number tested: rat PO
[3] = tested on: minimal muscular or neurological impairment (gait); test: TOX, abnormal uncoordinated gait, rat PO; format: in vivo
[4] = tested on: subcutaneous pentylenetetrazole induced seizures; test: Subcutaneous metrazole seizure; format: in vivo; conditions: rat IP, 50 mg/kg
[5] = tested on: minimal muscular or neurological impairment (gait); test: TOX, abnormal uncoordinated gait, rat IP; format: in vivo
seizures = test: Antiseizure activity in mice dosed ip; format: in vivo; conditions: data not shown
[6] = tested on: subcutaneous pentylenetetrazole induced seizures; conditions: rat PO; cited from earlier work
[7] = tested on: maximal electroshock induced seizures; test: Maximal electroshock seizure; format: in vivo; conditions: rat PO, 30 mg/kg
kindled motor seizure = test: Preliminary hippocampal kindling screen, rats IP; format: in vivo
α1β3γ2 GABAA receptors = α1β3γ2 GABAA receptors (Homo sapiens, UniProt P14867+P18507); test: Stimulation of GABA-induced currents in oocytes expressing GABAA receptors; conditions: concentration not given
[8] = tested on: maximal electroshock induced seizures; test: Maximal electroshock seizure; format: in vivo; conditions: mice IP, 100mg/kg
[9] = tested on: subcutaneous pentylenetetrazole induced seizures; test: Subcutaneous metrazole seizure; format: in vivo, mice; conditions: 100mg/kg; for scMET, number protected/number tested: mice IP
[10] = tested on: minimal muscular or neurological impairment (rotorod); test: TOX, motor impairment by rotorod paradigm, mice IP; format: in vivo; conditions: 100mg/kg
[11] = chronic dosing (5 days), data from NINDS; cited from earlier work
[12] = rats IP, 30mg/kg, after 1h of dosing (kindling screen table)

Sequence of α1β3γ2 GABAA receptors (P14867 28-456): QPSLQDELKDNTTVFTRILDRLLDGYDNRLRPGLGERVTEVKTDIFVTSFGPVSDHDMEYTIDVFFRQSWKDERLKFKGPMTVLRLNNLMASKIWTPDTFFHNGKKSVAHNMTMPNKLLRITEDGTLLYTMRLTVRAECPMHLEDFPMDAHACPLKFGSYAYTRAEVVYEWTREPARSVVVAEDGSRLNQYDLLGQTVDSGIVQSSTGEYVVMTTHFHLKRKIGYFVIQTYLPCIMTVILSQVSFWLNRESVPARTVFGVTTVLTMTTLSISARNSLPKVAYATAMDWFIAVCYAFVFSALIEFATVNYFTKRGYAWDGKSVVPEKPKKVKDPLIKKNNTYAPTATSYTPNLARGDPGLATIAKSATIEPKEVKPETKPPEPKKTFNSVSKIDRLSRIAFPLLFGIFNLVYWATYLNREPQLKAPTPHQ
Sequence of α1β3γ2 GABAA receptors (P28472 26-473 partner): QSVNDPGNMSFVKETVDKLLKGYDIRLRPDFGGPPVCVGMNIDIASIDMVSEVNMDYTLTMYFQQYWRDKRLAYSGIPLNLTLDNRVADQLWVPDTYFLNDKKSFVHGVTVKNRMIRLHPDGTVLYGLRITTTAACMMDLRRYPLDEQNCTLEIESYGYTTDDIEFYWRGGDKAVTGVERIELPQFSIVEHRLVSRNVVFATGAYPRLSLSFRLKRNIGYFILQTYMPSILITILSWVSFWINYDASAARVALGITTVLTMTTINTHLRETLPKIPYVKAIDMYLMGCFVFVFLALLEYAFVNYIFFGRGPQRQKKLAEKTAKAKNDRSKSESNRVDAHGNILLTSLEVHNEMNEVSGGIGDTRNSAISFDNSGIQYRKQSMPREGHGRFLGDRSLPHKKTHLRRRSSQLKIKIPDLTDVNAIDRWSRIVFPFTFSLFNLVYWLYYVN
Sequence of α1β3γ2 GABAA receptors (P18507 40-475): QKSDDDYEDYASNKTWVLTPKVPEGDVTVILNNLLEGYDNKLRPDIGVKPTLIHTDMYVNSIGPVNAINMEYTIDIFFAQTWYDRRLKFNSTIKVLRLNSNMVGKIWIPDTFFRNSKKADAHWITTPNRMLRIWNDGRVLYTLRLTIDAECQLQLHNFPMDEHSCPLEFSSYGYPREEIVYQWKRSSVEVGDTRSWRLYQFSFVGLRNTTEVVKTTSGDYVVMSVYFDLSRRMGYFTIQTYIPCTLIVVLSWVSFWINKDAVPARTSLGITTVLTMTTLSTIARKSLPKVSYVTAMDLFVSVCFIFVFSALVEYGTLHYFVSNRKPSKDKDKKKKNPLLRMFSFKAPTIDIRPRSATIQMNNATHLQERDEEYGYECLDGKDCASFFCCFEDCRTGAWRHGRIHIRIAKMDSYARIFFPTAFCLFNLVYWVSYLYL

In the case of `NC(=O)N1c2ccccc2C=Cc2ccccc21` [Carbamazepine], the “ED50 scMET” value [1] is given as greater than 50 mg/kg.

For `CCOC(=O)c1ncn2c1CN=C(c1ccccc1F)c1cc(I)ccc1-2` [compound 5], the “scMET, number protected/number tested” value ([2]; 50 mg/kg, 0.5 h) was 2/6, the “scMET, number protected/number tested” value ([2]; 50 mg/kg, after 1 h of dosing (footnote d, row 4.0 h), 50 mg/kg) was 5/6 and 5/6 ^d and the “TOX, number toxic/number tested” value ([3]; 0.5 h) was 0/6. The “TOX, number toxic/number tested” value ([3]; after 1 h of dosing (footnote d, row 4.0 h)) was “no observed TOX and 0/6 ^d”, the “scMET, number protected/number tested” value ([4]; 0.5 h) was 1/4 and the “scMET, number protected/number tested” value ([4]; 4.0 h) was 2/4. The “TOX, number toxic/number tested” value ([5]; rat IP, 0.5 h) was 0/4, the “TOX, number toxic/number tested” value ([5]; rat IP, 4.0 h) was 0/4 and the “activity in mice dosed ip” value (seizures) was “no activity”.

For `O=C1NC(=O)C(c2ccccc2)(c2ccccc2)N1` [Phenytoin], the “ED50 scMET” value [1] is given as greater than 50 mg/kg and the “ED50 scMET” value [6] is given as greater than 500 mg/kg.

For `C#Cc1ccc2c(c1)C(c1ccccc1Cl)=NCc1nnc(C)n1-2` [compound 4], the “MES, number protected/number tested” value ([7]; 0.5 h) was 0/4, the “MES, number protected/number tested” value ([7]; 4.0 h) was 0/4 and the “scMET, number protected/number tested” value ([2]; 15 mg/kg, 0.5 h) was 3/4. For the same compound, the “scMET, number protected/number tested” value ([2]; 15 mg/kg, 4.0 h) was 2/4, the “scMET, number protected/number tested” value ([2]; 50 mg/kg, 0.5 h) was 4/4 and the “scMET, number protected/number tested” value ([2]; 50 mg/kg, 4.0 h) was 3/4. The “TOX, number toxic/number tested” value ([3]; 0.5 h) was 0/4, the “TOX, number toxic/number tested” value ([3]; 4.0 h) was 0/4 and the “TOX, number toxic/number tested” value ([5]; rats IP, 3mg/kg, after 1h of dosing (kindling screen table)) was 0/2 ^f. The “Seizure Score, Drug L - H” value (kindled motor seizure; 10mg/kg, pre-drug 5) was 3.

In the case of `C#Cc1ccc2c(c1)C(c1ccccc1F)=NCc1c(C(=O)OCC)ncn1-2` [compound 3], the “MES, number protected/number tested” value ([7]; 0.5 h) is reported as 0/4, the “MES, number protected/number tested” value ([7]; 4.0 h) is reported as 1/4 and the “scMET, number protected/number tested” value ([2]; 50 mg/kg, 0.5 h) is reported as 3/4. The “scMET, number protected/number tested” value ([2]; 50 mg/kg, 4.0 h) was 4/4, the “TOX, number toxic/number tested” value ([3]; 0.5 h) was 0/4 and the “TOX, number toxic/number tested” value ([3]; 4.0 h) was 0/4. The “scMET, number protected/number tested” value ([4]; 0.5 h) was 3/4, the “scMET, number protected/number tested” value ([4]; 4.0 h) was 3/4 and the “TOX, number toxic/number tested” value ([5]; rat IP, 0.5 h) was 0/4. For the same compound, the “TOX, number toxic/number tested” value ([5]; rat IP, 4.0 h) was 0/4, the “TOX, number toxic/number tested” value [5, 12] was 0/2 ^e and the “Seizure Score, Drug L - H” value (kindled motor seizure; 50mg/kg, pre-drug 5) was 3. The “efficacy at α1” value (α1β3γ2 GABAA receptors) was 282%.

With `C#Cc1ccc2c(c1)C(c1ccccn1)=NCc1c(C(=O)OCC)ncn1-2` [compound 2] the “MES, number protected/number tested” value ([8]; 0.5 h) was 0/3, the “MES, number protected/number tested” value ([8]; 4.0 h) was 0/3 and the “scMET, number protected/number tested” value ([9]; 0.5 h) was 3/5. The “scMET, number protected/number tested” value ([9]; 4.0 h) was “absent and 0/1”, the “mice with raised scMET seizure threshold” value ([9]; mice ip, 0.5 h) was 60% and the “TOX, number toxic/number tested” value ([10]; 0.5 h) was “no motor impairment and 0/8”. For the same compound, the “TOX, number toxic/number tested” value ([10]; 4.0 h) was 0/4, the “MES, number protected/number tested” value ([7]; 0.5 h) was 1/4 and the “MES, number protected/number tested” value ([7]; 4.0 h) was 0/4. The “scMET, number protected/number tested” value ([2]; 50 mg/kg, 0.5 h) was 4/4, the “scMET, number protected/number tested” value ([2]; 50 mg/kg, 4.0 h) was 0/4 and the “protection (scMET)” value ([2]; rats, po dosing, after four hours) was “no protection”. For the same compound, the “TOX, number toxic/number tested” value ([3]; 0.5 h) was 0/4, the “TOX, number toxic/number tested” value ([3]; 4.0 h) was 0/4 and the “scMET, number protected/number tested” value ([4]; 0.5 h) was 7/8. The “TOX, number toxic/number tested” value ([5]; rat IP, 0.5 h) was 0/8, the “TOX, number toxic/number tested” value ([5]; rat IP, after 1 h of dosing (footnote d, row 4.0 h)) was 0/8 ^d and the “TOX, number toxic/number tested” value [5, 12] was 0/2 ^e. For the same compound, the “Seizure Score, Drug L - H” value (kindled motor seizure; 100mg/kg, pre-drug 4 5) was 3, the “tolerance to the anticonvulsant effects” value [11] was “did not develop” and the “efficacy at α1” value (α1β3γ2 GABAA receptors) was 233%.

From PMC2671240 (Journal of medicinal chemistry, 2009)
